Assay results: patent EP1171107B1, “USE OF A PHARMACEUTICAL COMPOSITION IN THE MANUFACTURE OF A MEDICAMENT FOR THE TREATMENT OF PATHOLOGICAL CONDITIONS OF THE EYE CAUSED BY BACTERIA, VIRUSES, FUNGI, YEASTS AND PROTOZOA” (Dr. GERHARD MANN chem.-pharm. Fabrik GmbH, priority 1999, dated 2000)

Columns and labels:
Type in all cases: cell-based
P.aeruginosa [1] = test: Qualitative examination: enrichment of the inoculated test preparation in broth
Outline: (§1)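 5 ml substance + ca. 10^5 CFU/ml; contact 2, 6, 8, 24, 32, 48, 72 h; spin 10 min 3000 rpm, resuspend in NaCl-peptone buffer ×2; 2 ml → 20 ml Caso broth (H. influenzae: Fildes), 33±2°C, ≤4 d; no growth = inoculum eliminated.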

H.influenzae [2] = test: as above
Outline: as §1

S.aureus [3] = test: Quantitative germ count (re-isolation, surface method) after inoculating the test preparation; details: Ausgangskeimzahl 2,6 x 10^5 KBE/ml
Outline: (§2)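 Test preparations were contaminated with ca. 10^5 CFU/ml of each strain, then sampled at 2, 6, 8, 24, 32, 48 and 72 h. Cells were centrifuged 10 min at 3000 rpm, washed in NaCl-peptone buffer, resuspended and spiral-plated on Caso agar at 33±2°C for max. 4 days. Detection limit was 100 CFU/ml.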

Sc. pneumoniae [4] = test: as above; details: Ausgangskeimzahl 3,7 x 10^5 KBE/ml
Outline: as §2

E.coli [5] = test: as above; details: Ausgangskeimzahl 2,7 x 10^5 KBE/ml
H.influenzae [6] = test: as above; details: Ausgangskeimzahl 2,8 x 10^5 KBE/ml
Outline: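 Surviving germs were counted by the surface method: an aliquot was spiral-plated on Kochblut-Agar and incubated at 33±2°C for max. 4 Tage, giving re-isolated counts in KBE/ml with a detection limit of 100 KBE/ml. Initial germ counts were also set by spiral-plater surface plating. The H. influenzae strain was pretested biochemically for identity and purity.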

S.aureus [7] = test: Qualitative examination: enrichment of the inoculated test preparation in broth
Outline: as §1

Sc. pneumoniae [8] = test: as above
Outline: as §1

S.epidermidis = test: as above
Outline: as §1

E.coli [9] = test: as above
Outline: as §1

P.aeruginosa [10] = test: Quantitative germ count (re-isolation, surface method) after inoculating the test preparation; details: Ausgangskeimzahl 2,7 x 10^5 KBE/ml
Outline: as §2

Structure (SMILES): CC1COc2c(N3CCN(C)CC3)c(F)cc3c(=O)c(C(=O)O)cn1c23 (stereo not shown) [Ofloxacin 0,3 Gew.-%, Ofloxacin, reference compound]
- Ergebnis der Reisolierung qualitiativ (+/-) nach Anreicherung (P.aeruginosa [1]; 2 h after inoculation): -
- Ergebnis der Reisolierung qualitiativ (+/-) nach Anreicherung (P.aeruginosa [1]; 4 h after inoculation): +
- Ergebnis der Reisolierung qualitiativ (+/-) nach Anreicherung (P.aeruginosa [1]; 6 h after inoculation): -
- Ergebnis der Reisolierung qualitiativ (+/-) nach Anreicherung (P.aeruginosa [1]; 8 h after inoculation): -
- Ergebnis der Reisolierung qualitiativ (+/-) nach Anreicherung (P.aeruginosa [1]; 24 h after inoculation): -
- Ergebnis der Reisolierung qualitiativ (+/-) nach Anreicherung (P.aeruginosa [1]; 32 h after inoculation): -
- Ergebnis der Reisolierung qualitiativ (+/-) nach Anreicherung (P.aeruginosa [1]; 48 h after inoculation): -
- Ergebnis der Reisolierung qualitiativ (+/-) nach Anreicherung (P.aeruginosa [1]; 72 h after inoculation): -
- Ergebnis der Reisolierung qualitiativ (+/-) nach Anreicherung (H.influenzae [2]; 2 h after inoculation): -
- Ergebnis der Reisolierung qualitiativ (+/-) nach Anreicherung (H.influenzae [2]; 4 h after inoculation): -
- Ergebnis der Reisolierung qualitiativ (+/-) nach Anreicherung (H.influenzae [2]; 6 h after inoculation): -
- Ergebnis der Reisolierung qualitiativ (+/-) nach Anreicherung (H.influenzae [2]; 8 h after inoculation): -
- Ergebnis der Reisolierung qualitiativ (+/-) nach Anreicherung (H.influenzae [2]; 24 h after inoculation): -
- Ergebnis der Reisolierung qualitiativ (+/-) nach Anreicherung (H.influenzae [2]; 32 h after inoculation): -
- Ergebnis der Reisolierung qualitiativ (+/-) nach Anreicherung (H.influenzae [2]; 48 h after inoculation): -
- Ergebnis der Reisolierung qualitiativ (+/-) nach Anreicherung (H.influenzae [2]; 72 h after inoculation): -
- Ergebnis der Reisolierung (in KBE/ml) (S.aureus [3]; 2 h after inoculation): <100 KBE/ml
- Ergebnis der Reisolierung (in KBE/ml) (S.aureus [3]; 4 h after inoculation): <100 KBE/ml
- Ergebnis der Reisolierung (in KBE/ml) (S.aureus [3]; 6 h after inoculation): <100 KBE/ml
- Ergebnis der Reisolierung (in KBE/ml) (S.aureus [3]; 8 h after inoculation): <100 KBE/ml
- Ergebnis der Reisolierung (in KBE/ml) (S.aureus [3]; 24 h after inoculation): <100 KBE/ml
- Ergebnis der Reisolierung (in KBE/ml) (S.aureus [3]; 32 h after inoculation): <100 KBE/ml
- Ergebnis der Reisolierung (in KBE/ml) (S.aureus [3]; 48 h after inoculation): <100 KBE/ml
- Ergebnis der Reisolierung (in KBE/ml) (S.aureus [3]; 72 h after inoculation): <100 KBE/ml
- Ergebnis der Reisolierung (in KBE/ml) (Sc. pneumoniae [4]; 2 h after inoculation): <100 KBE/ml
- Ergebnis der Reisolierung (in KBE/ml) (Sc. pneumoniae [4]; 4 h after inoculation): <100 KBE/ml
- Ergebnis der Reisolierung (in KBE/ml) (Sc. pneumoniae [4]; 6 h after inoculation): <100 KBE/ml
- Ergebnis der Reisolierung (in KBE/ml) (Sc. pneumoniae [4]; 8 h after inoculation): <100 KBE/ml
- Ergebnis der Reisolierung (in KBE/ml) (Sc. pneumoniae [4]; 24 h after inoculation): <100 KBE/ml
- Ergebnis der Reisolierung (in KBE/ml) (Sc. pneumoniae [4]; 32 h after inoculation): <100 KBE/ml
- Ergebnis der Reisolierung (in KBE/ml) (Sc. pneumoniae [4]; 48 h after inoculation): <100 KBE/ml
- Ergebnis der Reisolierung (in KBE/ml) (Sc. pneumoniae [4]; 72 h after inoculation): <100 KBE/ml
- Ergebnis der Reisolierung (in KBE/ml) (E.coli [5]; 2 h after inoculation): <100 KBE/ml
- Ergebnis der Reisolierung (in KBE/ml) (E.coli [5]; 4 h after inoculation): <100 KBE/ml
- Ergebnis der Reisolierung (in KBE/ml) (E.coli [5]; 6 h after inoculation): <100 KBE/ml
- Ergebnis der Reisolierung (in KBE/ml) (E.coli [5]; 8 h after inoculation): <100 KBE/ml
- Ergebnis der Reisolierung (in KBE/ml) (E.coli [5]; 24 h after inoculation): <100 KBE/ml
- Ergebnis der Reisolierung (in KBE/ml) (E.coli [5]; 32 h after inoculation): <100 KBE/ml
- Ergebnis der Reisolierung (in KBE/ml) (E.coli [5]; 48 h after inoculation): <100 KBE/ml
- Ergebnis der Reisolierung (in KBE/ml) (E.coli [5]; 72 h after inoculation): <100 KBE/ml
- Ergebnis der Reisolierung (in KBE/ml) (H.influenzae [6]; 2 h after inoculation): <100 KBE/ml
- Ergebnis der Reisolierung (in KBE/ml) (H.influenzae [6]; 4 h after inoculation): <100 KBE/ml
- Ergebnis der Reisolierung (in KBE/ml) (H.influenzae [6]; 6 h after inoculation): <100 KBE/ml
- Ergebnis der Reisolierung (in KBE/ml) (H.influenzae [6]; 8 h after inoculation): <100 KBE/ml
- Ergebnis der Reisolierung (in KBE/ml) (H.influenzae [6]; 24 h after inoculation): <100 KBE/ml
- Ergebnis der Reisolierung (in KBE/ml) (H.influenzae [6]; 32 h after inoculation): <100 KBE/ml
- Ergebnis der Reisolierung (in KBE/ml) (H.influenzae [6]; 48 h after inoculation): <100 KBE/ml
- Ergebnis der Reisolierung (in KBE/ml) (H.influenzae [6]; 72 h after inoculation): <100 KBE/ml
- Ergebnis der Reisolierung qualitiativ (+/-) nach Anreicherung (S.aureus [7]; 2 h after inoculation): +
- Ergebnis der Reisolierung qualitiativ (+/-) nach Anreicherung (S.aureus [7]; 4 h after inoculation): +
- Ergebnis der Reisolierung qualitiativ (+/-) nach Anreicherung (S.aureus [7]; 6 h after inoculation): +
- Ergebnis der Reisolierung qualitiativ (+/-) nach Anreicherung (S.aureus [7]; 8 h after inoculation): -
- Ergebnis der Reisolierung qualitiativ (+/-) nach Anreicherung (S.aureus [7]; 24 h after inoculation): -
- Ergebnis der Reisolierung qualitiativ (+/-) nach Anreicherung (S.aureus [7]; 32 h after inoculation): -
- Ergebnis der Reisolierung qualitiativ (+/-) nach Anreicherung (S.aureus [7]; 48 h after inoculation): -
- Ergebnis der Reisolierung qualitiativ (+/-) nach Anreicherung (S.aureus [7]; 72 h after inoculation): -
- Ergebnis der Reisolierung qualitiativ (+/-) nach Anreicherung (Sc. pneumoniae [8]; 2 h after inoculation): -
- Ergebnis der Reisolierung qualitiativ (+/-) nach Anreicherung (Sc. pneumoniae [8]; 4 h after inoculation): +
- Ergebnis der Reisolierung qualitiativ (+/-) nach Anreicherung (Sc. pneumoniae [8]; 6 h after inoculation): -
- Ergebnis der Reisolierung qualitiativ (+/-) nach Anreicherung (Sc. pneumoniae [8]; 8 h after inoculation): -
- Ergebnis der Reisolierung qualitiativ (+/-) nach Anreicherung (Sc. pneumoniae [8]; 24 h after inoculation): -
- Ergebnis der Reisolierung qualitiativ (+/-) nach Anreicherung (Sc. pneumoniae [8]; 32 h after inoculation): -
- Ergebnis der Reisolierung qualitiativ (+/-) nach Anreicherung (Sc. pneumoniae [8]; 48 h after inoculation): -
- Ergebnis der Reisolierung qualitiativ (+/-) nach Anreicherung (Sc. pneumoniae [8]; 72 h after inoculation): -
- Ergebnis der Reisolierung qualitiativ (+/-) nach Anreicherung (S.epidermidis; 2 h after inoculation): +
- Ergebnis der Reisolierung qualitiativ (+/-) nach Anreicherung (S.epidermidis; 4 h after inoculation): +
- Ergebnis der Reisolierung qualitiativ (+/-) nach Anreicherung (S.epidermidis; 6 h after inoculation): +
- Ergebnis der Reisolierung qualitiativ (+/-) nach Anreicherung (S.epidermidis; 8 h after inoculation): -
- Ergebnis der Reisolierung qualitiativ (+/-) nach Anreicherung (S.epidermidis; 24 h after inoculation): -
- Ergebnis der Reisolierung qualitiativ (+/-) nach Anreicherung (S.epidermidis; 32 h after inoculation): -
- Ergebnis der Reisolierung qualitiativ (+/-) nach Anreicherung (S.epidermidis; 48 h after inoculation): -
- Ergebnis der Reisolierung qualitiativ (+/-) nach Anreicherung (S.epidermidis; 72 h after inoculation): -
- Ergebnis der Reisolierung qualitiativ (+/-) nach Anreicherung (E.coli [9]; 2 h after inoculation): -
- Ergebnis der Reisolierung qualitiativ (+/-) nach Anreicherung (E.coli [9]; 4 h after inoculation): -
- Ergebnis der Reisolierung qualitiativ (+/-) nach Anreicherung (E.coli [9]; 6 h after inoculation): -
- Ergebnis der Reisolierung qualitiativ (+/-) nach Anreicherung (E.coli [9]; 8 h after inoculation): -
- Ergebnis der Reisolierung qualitiativ (+/-) nach Anreicherung (E.coli [9]; 24 h after inoculation): -
- Ergebnis der Reisolierung qualitiativ (+/-) nach Anreicherung (E.coli [9]; 32 h after inoculation): -
- Ergebnis der Reisolierung qualitiativ (+/-) nach Anreicherung (E.coli [9]; 48 h after inoculation): -
- Ergebnis der Reisolierung qualitiativ (+/-) nach Anreicherung (E.coli [9]; 72 h after inoculation): -
- Ergebnis der Reisolierung (in KBE/ml) (P.aeruginosa [10]; 2 h after inoculation): <100 KBE/ml
- Ergebnis der Reisolierung (in KBE/ml) (P.aeruginosa [10]; 4 h after inoculation): <100 KBE/ml
- Ergebnis der Reisolierung (in KBE/ml) (P.aeruginosa [10]; 6 h after inoculation): <100 KBE/ml
- Ergebnis der Reisolierung (in KBE/ml) (P.aeruginosa [10]; 8 h after inoculation): <100 KBE/ml
- Ergebnis der Reisolierung (in KBE/ml) (P.aeruginosa [10]; 24 h after inoculation): <100 KBE/ml
- Ergebnis der Reisolierung (in KBE/ml) (P.aeruginosa [10]; 32 h after inoculation): <100 KBE/ml
- Ergebnis der Reisolierung (in KBE/ml) (P.aeruginosa [10]; 48 h after inoculation): <100 KBE/ml
- Ergebnis der Reisolierung (in KBE/ml) (P.aeruginosa [10]; 72 h after inoculation): <100 KBE/ml
